What was measured:
[1] = system: K-562; assay: NCI 60 Cell One-Dose Screen; assay type: cell-based, human; conditions: K-562, Leukemia; single dose 10^-5 M
[2] = system: RXF 393; assay type: cell-based; conditions: RXF 393, Renal Cancer
[3] = system: BT-549; assay: NCI 60 Cell One-Dose Screen; assay type: cell-based, human; conditions: BT-549, Breast Cancer; single dose 10^-5 M
[4] = system: HS 578T; assay: NCI 60 Cell One-Dose Screen; assay type: cell-based, human; conditions: Breast Cancer, single dose 10^-5 M
[5] = system: OVCAR-4; assay type: cell-based; conditions: OVCAR-4, Ovarian Cancer
[6] = system: MCF7; assay: NCI 60 Cell One-Dose Screen; assay type: cell-based, human; conditions: MCF7, Breast Cancer; single dose 10^-5 M
[7] = system: COLO 205; assay type: cell-based; conditions: COLO 205, Colon Cancer
[8] = system: SK-MEL-2; assay type: cell-based; conditions: SK-MEL-2, Melanoma
[9] = system: SF-268; assay type: cell-based; conditions: SF-268, CNS Cancer
[10] = system: M14; assay type: cell-based; conditions: M14, Melanoma
[11] = system: HCT-116; assay: NCI 60 Cell One-Dose Screen; assay type: cell-based, human; conditions: HCT-116, Colon Cancer; single dose 10^-5 M
[12] = system: SW-620; assay type: cell-based; conditions: SW-620, Colon Cancer
[13] = system: OVCAR-5; assay type: cell-based; conditions: OVCAR-5, Ovarian Cancer
[14] = system: MDA-MB-435; assay type: cell-based; conditions: MDA-MB-435, Melanoma
[15] = mouse, in vivo
Description: GlySA (DMSO stock solution diluted by saline) were administrated to three month old female BALB CJ mice via tail vein injections. […] The GlySA concentration tested were 0.4 mg/kg (10 μM), 2.0 mg/kg (50 μM), 4.0 mg/kg (100 μM). N=3 for each group.
Animal experiments were also performed to study the use of GlySA to treat cancer. A maximum tolerant dosage assay of GlySA was conducted. GlySA (DMSO stock solution diluted by saline) were administrated to three month old female BALB CJ mice via tail vein injections. […] The GlySA concentration tested were 0.4 mg/kg (10 μM), 2.0 mg/kg (50 μM), 4.0 mg/kg (100 μM). N=3 for each group.

[16] = system: CCRF-CEM; assay: NCI 60 Cell One-Dose Screen; assay type: cell-based, human; conditions: Leukemia, single dose 10^-5 M
[17] = system: UACC-257; assay: NCI 60 Cell One-Dose Screen; assay type: cell-based, human; conditions: UACC-257, Melanoma; single dose 10^-5 M
[18] = system: T-47D; assay: NCI 60 Cell One-Dose Screen; assay type: cell-based, human; conditions: Breast Cancer, single dose 10^-5 M
[19] = system: CCRF-CEM; assay type: cell-based; conditions: Leukemia
[20] = system: SK-OV-3; assay type: cell-based; conditions: SK-OV-3, Ovarian Cancer
[21] = system: OVCAR-8; assay type: cell-based; conditions: OVCAR-8, Ovarian Cancer
[22] = system: MCF7; assay type: cell-based; conditions: MCF7, Breast Cancer
[23] = system: NCI-H522; assay type: cell-based; conditions: NCI-H522, Non-Small Cell Lung Cancer
[24] = system: SF-295; assay type: cell-based; conditions: SF-295, CNS Cancer
[25] = system: HCC-2998; assay: NCI 60 Cell One-Dose Screen; assay type: cell-based, human; conditions: HCC-2998, Colon Cancer; single dose 10^-5 M
[26] = system: PC-3; assay: NCI 60 Cell One-Dose Screen; assay type: cell-based, human; conditions: PC-3, Prostate Cancer; single dose 10^-5 M
[27] = system: HOP-92; assay type: cell-based; conditions: HOP-92, Non-Small Cell Lung Cancer
[28] = system: MALME-3M; assay type: cell-based; conditions: Melanoma
[29] = system: NCI-H460; assay: NCI 60 Cell One-Dose Screen; assay type: cell-based, human; conditions: NCI-H460, Non-Small Cell Lung Cancer; single dose 10^-5 M
[30] = Homo sapiens, read-out: LC50 (the source's name)

With `NCC(=O)NS(=O)(=O)OC[C@H]1O[C@@H](n2cnc3c(N)ncnc32)[C@H](O)[C@@H]1O` [GlySA, glycylsulfamoyladenosine] the “Growth inhibition count (%)” value [1] was 7.376%, the GI50 ([2]; Homo sapiens) was 2140 nM and the CC50 [2, 30] was 8320 nM. For the same compound, the LC50/GI50 [2] was 3.9, the “Growth inhibition count (%)” value [3] was 21.06% and the “Growth inhibition count (%)” value [4] was 16.07%. It also gave a GI50 ([5]; Homo sapiens) of 389 nM, a CC50 [5, 30] of 24000 nM and an LC50/GI50 [5] of 61.7. For the same compound, the “Growth inhibition count (%)” value [6] was 8.271%, the LC50/GI50 [7] was 28.2 and the GI50 ([7]; Homo sapiens) was 2290 nM. The CC50 [7, 30] was 64600 nM, the GI50 ([8]; Homo sapiens) was 2240 nM and the CC50 [8, 30] was 10000 nM. The LC50/GI50 [8] was 4.5, the GI50 ([9]; Homo sapiens) was 501 nM and the LC50/GI50 [9] was over 199.5. It also gave a GI50 ([10]; Homo sapiens) of 1820 nM, a CC50 [10, 30] of 7240 nM and an LC50/GI50 [10] of 4.0. For the same compound, the “Growth inhibition count (%)” value [11] was 6.566%, the GI50 ([12]; Homo sapiens) was 3720 nM and the CC50 [12, 30] was over 100000 nM. The LC50/GI50 [12] was over 26.9, the GI50 ([13]; Homo sapiens) was 741 nM and the CC50 [13, 30] was over 100000 nM. It also gave an LC50/GI50 [13] of over 134.9, a GI50 ([14]; Homo sapiens) of 1820 nM and an LC50/GI50 [14] of 3.6. The “survival of mice after four injections” value [15] was “all were alive”, the “Growth inhibition count (%)” value [16] was 21.68% and the “Growth inhibition count (%)” value [17] was 27.43%. The “Growth inhibition count (%)” value [18] was 7.656%, the GI50 ([19]; Homo sapiens) was 3720 nM and the LC50/GI50 [19] was over 26.9. For the same compound, the GI50 ([20]; Homo sapiens) was 2880 nM, the CC50 [20, 30] was 37200 nM and the LC50/GI50 [20] was 12.9. The GI50 ([21]; Homo sapiens) was 2460 nM, the CC50 [21, 30] was over 100000 nM and the LC50/GI50 [21] was over 40.7. The GI50 ([22]; Homo sapiens) was 2820 nM, the CC50 [22, 30] was over 100000 nM and the LC50/GI50 [22] was over 35.5. It also gave a GI50 ([23]; Homo sapiens) of 1740 nM, a CC50 [23, 30] of 8510 nM and an LC50/GI50 [23] of 4.9. It also gave a GI50 ([24]; Homo sapiens) of 871 nM, a CC50 [24, 30] of 6920 nM and an LC50/GI50 [24] of 7.9. For the same compound, the “Growth inhibition count (%)” value [25] was 41.35%, the “Growth inhibition count (%)” value [26] was 9.662% and the LC50/GI50 [27] was 9.3. For the same compound, the GI50 ([27]; Homo sapiens) was 2950 nM, the CC50 [27, 30] was 27500 nM and the GI50 ([28]; Homo sapiens) was 1900 nM. For the same compound, the CC50 [28, 30] was 7760 nM, the LC50/GI50 [28] was 4.1 and the “Growth inhibition count (%)” value [29] was 3.35%.
